From the OPERA property sets (Mansouri et al. 2018)

In order of falling boiling point:
1. c1ccc([As](c2ccccc2)c2ccccc2)cc1  360 °C
2. c1ccc(Cc2ccc3ccccc3c2)cc1  350 °C
3. O=C(/C=C/c1ccccc1)c1ccccc1  346 °C
4. CN(C)c1ccc(C(=N)c2ccc(N(C)C)cc2)cc1  330 °C
5. CC1CCCCCCCCCCCCC(=O)C1 (stereo not given)  329 °C
6. Clc1c(Cl)c(Cl)c(Cl)c(Cl)c1Cl  325 °C
7. COc1ccccc1-c1ccccc1OC  308 °C
8. Clc1ccccc1C(Cl)(Cl)Cl  264 °C
9. C1CCCCCCCCCCC1  247 °C
10. Cc1ccc(N)cc1Cl  243 °C
11. C=CCCCCCCCCCCCC  233 °C
12. CC(C)CC(C)CC(O)CC(C)C (stereo not given)  225 °C
13. NCC1CCCC(CN)C1 (stereo not given)  220 °C
14. NCc1ccccn1  203 °C
15. CC(=O)CC(=O)OCCCl  198 °C
16. CC=CC=CC(=O)OCC  196 °C
17. CCCOC(N)=O  196 °C
18. CCCCC(O)CCCC  193 °C
19. CCCCCCC(C)CCC (stereo not given)  187 °C
20. ClCCC[Si](Cl)(Cl)Cl  182 °C
21. CCCCCCCBr  179 °C
22. COCC1CCCO1 (stereo not given)  140 °C
23. CC(Cl)CO (stereo not given)  134 °C
24. CCCC(=O)OC(C)C  130 °C
25. CC=C1CCCC1  115 °C
26. Fc1nc(F)c(Cl)c(F)n1  114 °C
27. C#CCCCC#C  112 °C
28. CCOC(=O)C(F)(F)C(F)(F)C(F)(F)F  95 °C
29. CCB(CC)CC  95 °C
30. C#CCCC(C)C  92 °C
31. CCCCNC  91 °C
32. FC(F)I  21.6 °C
33. FC(F)(F)C(F)(C(F)(F)F)C(F)(F)F  0 °C

In order of falling melting point:
1. C[C@](N)(Cc1ccc(O)cc1)C(=O)O  312 °C
2. O=c1ccc2ccc(O)c(O)c2o1  262 °C
3. C[C@]12CC[C@H](O)C[C@H]1CC[C@@H]1[C@@H]2[C@H](O)C[C@]2(C)[C@@H](c3ccc(=O)oc3)CC[C@]12O  254 °C
4. Cc1c(Cl)cc(-c2ccc(O)nn2)cc1Cl  252 °C
5. CC(=NO)C(C)=NO  246 °C
6. C[N+](C)(C)CC(=O)O.[Cl-]  242 °C
7. O=c1sc2ccccc2c(O)c1C1CC(c2ccc(-c3ccc(Br)cc3)cc2)Cc2ccccc21 (stereo not given)  234 °C
8. Clc1c(Cl)c(Cl)c(Cl)c(Cl)c1Cl  232 °C
9. NC(=O)c1ccc(Br)cc1  192 °C
10. Oc1c(Cl)cc(Cl)c2cccnc12  180 °C
11. CC(=O)OCC(=O)[C@H]1CC[C@H]2[C@@H]3CCC4=CC(=O)CC[C@]4(C)[C@H]3CC[C@]12C  157 °C
12. NC(=O)C[C@H](O)C(=O)O  148 °C
13. O=C(Oc1ccccc1C(=O)O)c1ccccc1O  147 °C
14. CC(C)(C)c1cc(CO)cc(C(C)(C)C)c1O  140 °C
15. CN(C)c1ccc(C(=N)c2ccc(N(C)C)cc2)cc1  136 °C
16. Cc1cc(O)c([N+](=O)[O-])cc1Cl  133 °C
17. COc1ccc([N+](=O)[O-])c(N)c1  131 °C
18. O=C(Nc1ccccc1)N(Cc1ccc(Cl)cc1)C1CCCC1  130 °C
19. CCCCCC(=O)O[C@]1(C(C)=O)CC[C@H]2[C@@H]3CCC4=CC(=O)CC[C@@H]4[C@H]3CC[C@@]21C  124 °C
20. Cc1cc2ccccc2c2ccc3ccccc3c12  118 °C
21. O=C(O)Cc1ccc(Br)cc1  116 °C
22. Clc1cccc2c(Cl)cccc12  107 °C
23. CC1(C)COC(=O)C1O (stereo not given)  92 °C
24. NC(=O)OCc1ccccc1  88 °C
25. CC(C)(C)c1ccc(CCOc2ncnc3ccccc23)cc1  78.5 °C
26. CCOC(=O)COC(=O)c1cc(Oc2ccc(C(F)(F)F)cc2Cl)ccc1[N+](=O)[O-]  65 °C
27. COc1cc(CCCO)ccc1O  65 °C
28. c1ccc([As](c2ccccc2)c2ccccc2)cc1  61 °C
29. C1CCCCCCCCCCC1  60.4 °C
30. CCCOC(N)=O  60 °C
31. c1ccc(Cc2ccc3ccccc3c2)cc1  58 °C
32. O=C(/C=C/c1ccccc1)c1ccccc1  57.5 °C
33. O=C=Nc1ccc([N+](=O)[O-])cc1  57 °C
34. Clc1ccccc1C(Cl)(Cl)Cl  29.4 °C
35. Cc1ccc(N)cc1Cl  26 °C
36. C1COCCOCCOCCO1  16 °C
37. C=CCCCCCCCCCCCC  -12 °C
38. CCCCCCCBr  -58 °C
39. CCCCNC  -75 °C
40. CCCCCCC(C)CCC (stereo not given)  -77.5 °C
41. C#CCCCC#C  -85 °C
42. CCB(CC)CC  -93 °C
43. FC(F)I  -122 °C
44. C#CCCC(C)C  -125 °C
45. CC=C1CCCC1  -130 °C

In the case of `Cc1ccc(Cl)cc1O`, the ready biodegradability is reported as “not readily biodegradable”.
In the case of `O=C(O)c1cccc2ccccc12`, the ready biodegradability is reported as “not readily biodegradable”.
With `CC1(C)COC(=O)C1O` (stereo not given) the ready biodegradability was “readily biodegradable”.
With `NCC1CCCC(CN)C1` (stereo not given) the ready biodegradability was “not readily biodegradable”.
In the case of `COc1ccc(NC(C)=O)cc1N`, the ready biodegradability is reported as “not readily biodegradable”.
For `CC(C)(C)c1cc(CO)cc(C(C)(C)C)c1O`, the ready biodegradability was “not readily biodegradable”.
In the case of `C1CCCCCCCCCCC1`, the ready biodegradability is reported as “not readily biodegradable”.
In the case of `Clc1c(Cl)c(Cl)c(Cl)c(Cl)c1Cl`, the ready biodegradability is reported as “not readily biodegradable”.
With `CP(=O)(O)CCC(N)C(=O)O` (stereo not given) the ready biodegradability was “readily biodegradable”.
For `CN(C)c1ccc(C(=N)c2ccc(N(C)C)cc2)cc1`, the ready biodegradability was “not readily biodegradable”.
With `CCCCCCCCCCCC(=O)NCCC[N+](C)(C)CC(=O)[O-]` the ready biodegradability was “readily biodegradable”.

In order of rising log10 vapour pressure (mmHg):
1. O=C(Nc1ccccc1)N(Cc1ccc(Cl)cc1)C1CCCC1  -11.4
2. CC(C)(C)c1ccc(CCOc2ncnc3ccccc23)cc1  -7.59
3. Clc1c(Cl)c(Cl)c(Cl)c(Cl)c1Cl  -4.74
4. c1ccc([As](c2ccccc2)c2ccccc2)cc1  -4.3
5. Cc1cc(O)c([N+](=O)[O-])cc1Cl  -3.07
6. C=CCCCCCCCCCCCC  -1.82
7. Clc1ccccc1C(Cl)(Cl)Cl  -1.3
8. CCCOC(N)=O  -1.26
9. CCCCCCCBr  0.105
10. CC(Cl)CO (stereo not given)  0.72

For `C1CC2C3CCC(C3)C2C1` (stereo not given), the log10 biodegradation half-life (days) was 3.

In order of falling log10 Henry constant (atm·m³/mol):
1. Clc1c(Cl)c(Cl)c(Cl)c(Cl)c1Cl  -2.77
2. Clc1ccc(Cl)c(-c2c(Cl)ccc(Cl)c2Cl)c1  -3.92
3. O=C(Nc1ccccc1)N(Cc1ccc(Cl)cc1)C1CCCC1  -11.3

In order of rising log10 Koa:
1. Clc1cccc2c(Cl)cccc12  6.65
2. Clc1c(Cl)c(Cl)c(Cl)c(Cl)c1Cl  7.38
3. Clc1ccc(Cl)c(-c2c(Cl)ccc(Cl)c2Cl)c1  8.79

In order of falling log10 Koc (L/kg):
1. Clc1ccc(Cl)c(-c2c(Cl)ccc(Cl)c2Cl)c1  5.55
2. Clc1c(Cl)c(Cl)c(Cl)c(Cl)c1Cl  3.74
3. CN(C)c1ccc(C(=N)c2ccc(N(C)C)cc2)cc1  3.31
4. CP(=O)(O)CCC(N)C(=O)O (stereo not given)  2.63
